compound: NC(=O)CCCCC1CCSS1 [lipoamide]; assay: thermal stability z-score vs DMSO; higher = more thermally stabilized by treatment; details: HeLa; lipoamide concentration 100 µM; arsenate co-treatment: 1 mM arsenate 1 h
Protocol: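 Cellular thermal proteome profiling in HeLa cells. Cells were treated with 100 µM lipoamide for 1 h, with or without 1 mM arsenate for a further 1 h, then heated to ten temperatures (37-66.3 °C), and soluble protein was quantified by TMT mass spectrometry relative to 0.1% DMSO controls. The thermal stability score (sum of log2 fold changes minus the abundance score) was transformed to a z-score; mean of n = 3 experiments.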
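Further: each temperature applied for 3 min, abundance score taken as mean log2 fold change at the two lowest temperatures, z-score obtained by mean subtraction and division by SD.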

UniProt Q9NRP2, sequence (Q9NRP2 whole entry): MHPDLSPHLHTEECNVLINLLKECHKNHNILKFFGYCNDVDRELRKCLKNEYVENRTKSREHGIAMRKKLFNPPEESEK
UniProt Q96MD7, sequence (Q96MD7 whole entry): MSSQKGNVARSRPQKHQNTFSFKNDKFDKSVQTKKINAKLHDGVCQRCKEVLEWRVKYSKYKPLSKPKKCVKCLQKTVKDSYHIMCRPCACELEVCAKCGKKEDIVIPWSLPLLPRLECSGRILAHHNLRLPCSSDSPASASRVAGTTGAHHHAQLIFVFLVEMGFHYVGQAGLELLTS
UniProt Q8TB22, sequence (Q8TB22 whole entry): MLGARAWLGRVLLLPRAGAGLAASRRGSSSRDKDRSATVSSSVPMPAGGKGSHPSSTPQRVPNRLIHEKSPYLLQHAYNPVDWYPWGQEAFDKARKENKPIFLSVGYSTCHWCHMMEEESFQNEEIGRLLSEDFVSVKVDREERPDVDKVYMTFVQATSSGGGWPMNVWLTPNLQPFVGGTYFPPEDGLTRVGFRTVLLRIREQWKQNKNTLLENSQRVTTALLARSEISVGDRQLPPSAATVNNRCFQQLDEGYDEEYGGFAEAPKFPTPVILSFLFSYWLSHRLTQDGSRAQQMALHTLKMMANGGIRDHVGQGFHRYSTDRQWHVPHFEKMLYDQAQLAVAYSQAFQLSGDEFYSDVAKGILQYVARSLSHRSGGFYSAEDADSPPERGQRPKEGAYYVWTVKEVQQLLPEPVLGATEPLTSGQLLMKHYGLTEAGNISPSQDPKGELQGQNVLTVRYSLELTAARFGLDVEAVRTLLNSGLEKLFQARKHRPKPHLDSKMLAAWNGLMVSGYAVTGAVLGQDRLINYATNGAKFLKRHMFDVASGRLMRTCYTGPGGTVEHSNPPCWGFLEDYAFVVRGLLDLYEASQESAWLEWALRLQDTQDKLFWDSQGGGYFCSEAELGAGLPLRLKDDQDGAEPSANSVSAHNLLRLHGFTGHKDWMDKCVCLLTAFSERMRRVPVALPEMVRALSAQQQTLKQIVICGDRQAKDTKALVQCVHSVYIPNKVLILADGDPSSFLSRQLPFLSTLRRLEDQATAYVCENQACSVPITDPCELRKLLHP
UniProt P50583, sequence (P50583 whole entry): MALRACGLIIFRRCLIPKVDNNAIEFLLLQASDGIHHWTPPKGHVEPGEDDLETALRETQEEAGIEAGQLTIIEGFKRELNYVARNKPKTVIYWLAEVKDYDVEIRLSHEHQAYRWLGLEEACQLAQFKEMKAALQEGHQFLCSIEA
UniProt P12277, sequence (P12277 whole entry): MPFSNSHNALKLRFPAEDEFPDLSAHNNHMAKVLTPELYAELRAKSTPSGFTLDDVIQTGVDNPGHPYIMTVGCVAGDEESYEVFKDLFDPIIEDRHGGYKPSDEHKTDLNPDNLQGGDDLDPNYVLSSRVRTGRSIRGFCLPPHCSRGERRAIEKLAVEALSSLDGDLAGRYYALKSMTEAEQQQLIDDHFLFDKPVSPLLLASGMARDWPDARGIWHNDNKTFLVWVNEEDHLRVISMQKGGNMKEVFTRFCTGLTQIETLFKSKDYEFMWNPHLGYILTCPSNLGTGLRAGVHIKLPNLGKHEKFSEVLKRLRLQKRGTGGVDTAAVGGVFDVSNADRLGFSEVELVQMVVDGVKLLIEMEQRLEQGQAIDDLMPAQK
UniProt P55084, sequence (P55084 whole entry): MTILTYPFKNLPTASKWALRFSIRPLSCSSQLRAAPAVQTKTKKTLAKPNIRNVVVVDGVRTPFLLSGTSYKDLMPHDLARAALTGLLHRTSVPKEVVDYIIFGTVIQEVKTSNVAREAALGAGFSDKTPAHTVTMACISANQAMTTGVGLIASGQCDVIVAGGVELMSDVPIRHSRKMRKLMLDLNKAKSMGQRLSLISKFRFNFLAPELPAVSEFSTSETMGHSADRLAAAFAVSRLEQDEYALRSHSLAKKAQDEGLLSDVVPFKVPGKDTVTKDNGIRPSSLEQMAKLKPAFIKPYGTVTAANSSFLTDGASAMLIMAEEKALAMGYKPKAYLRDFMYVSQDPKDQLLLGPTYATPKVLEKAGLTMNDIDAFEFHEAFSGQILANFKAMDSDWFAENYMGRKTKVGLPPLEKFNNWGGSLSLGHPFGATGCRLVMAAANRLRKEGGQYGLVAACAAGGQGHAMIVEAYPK
UniProt Q13153, sequence (Q13153 whole entry): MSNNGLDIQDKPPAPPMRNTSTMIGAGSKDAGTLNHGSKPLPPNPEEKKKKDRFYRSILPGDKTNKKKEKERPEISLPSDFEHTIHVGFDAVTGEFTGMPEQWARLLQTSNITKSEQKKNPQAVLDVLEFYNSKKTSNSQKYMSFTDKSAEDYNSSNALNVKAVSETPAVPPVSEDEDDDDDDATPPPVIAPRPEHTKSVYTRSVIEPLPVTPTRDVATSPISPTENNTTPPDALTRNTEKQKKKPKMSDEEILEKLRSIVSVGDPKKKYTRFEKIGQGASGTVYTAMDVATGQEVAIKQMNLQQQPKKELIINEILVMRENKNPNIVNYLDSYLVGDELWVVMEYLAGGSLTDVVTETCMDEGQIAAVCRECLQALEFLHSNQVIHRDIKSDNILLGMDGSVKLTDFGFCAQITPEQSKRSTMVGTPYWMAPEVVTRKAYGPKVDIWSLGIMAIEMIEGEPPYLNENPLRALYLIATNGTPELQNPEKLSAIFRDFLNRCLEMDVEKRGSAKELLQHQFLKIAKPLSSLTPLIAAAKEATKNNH
UniProt Q96LB3, sequence (Q96LB3 whole entry): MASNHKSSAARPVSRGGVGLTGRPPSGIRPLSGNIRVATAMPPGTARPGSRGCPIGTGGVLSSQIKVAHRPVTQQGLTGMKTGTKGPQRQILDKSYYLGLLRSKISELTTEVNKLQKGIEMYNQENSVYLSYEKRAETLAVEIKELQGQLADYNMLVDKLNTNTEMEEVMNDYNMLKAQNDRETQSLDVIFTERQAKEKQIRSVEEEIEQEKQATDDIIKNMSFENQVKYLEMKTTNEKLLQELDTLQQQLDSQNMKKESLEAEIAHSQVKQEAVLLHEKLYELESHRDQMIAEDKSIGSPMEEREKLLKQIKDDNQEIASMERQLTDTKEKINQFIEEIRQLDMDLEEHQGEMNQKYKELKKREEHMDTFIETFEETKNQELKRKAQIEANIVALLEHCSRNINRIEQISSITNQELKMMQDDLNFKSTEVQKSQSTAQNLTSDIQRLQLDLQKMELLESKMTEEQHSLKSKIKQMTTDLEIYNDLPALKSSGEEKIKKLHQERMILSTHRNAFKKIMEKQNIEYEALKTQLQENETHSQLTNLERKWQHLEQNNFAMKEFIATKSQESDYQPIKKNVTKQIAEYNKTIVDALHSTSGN
UniProt P52948, sequence (P52948 whole entry): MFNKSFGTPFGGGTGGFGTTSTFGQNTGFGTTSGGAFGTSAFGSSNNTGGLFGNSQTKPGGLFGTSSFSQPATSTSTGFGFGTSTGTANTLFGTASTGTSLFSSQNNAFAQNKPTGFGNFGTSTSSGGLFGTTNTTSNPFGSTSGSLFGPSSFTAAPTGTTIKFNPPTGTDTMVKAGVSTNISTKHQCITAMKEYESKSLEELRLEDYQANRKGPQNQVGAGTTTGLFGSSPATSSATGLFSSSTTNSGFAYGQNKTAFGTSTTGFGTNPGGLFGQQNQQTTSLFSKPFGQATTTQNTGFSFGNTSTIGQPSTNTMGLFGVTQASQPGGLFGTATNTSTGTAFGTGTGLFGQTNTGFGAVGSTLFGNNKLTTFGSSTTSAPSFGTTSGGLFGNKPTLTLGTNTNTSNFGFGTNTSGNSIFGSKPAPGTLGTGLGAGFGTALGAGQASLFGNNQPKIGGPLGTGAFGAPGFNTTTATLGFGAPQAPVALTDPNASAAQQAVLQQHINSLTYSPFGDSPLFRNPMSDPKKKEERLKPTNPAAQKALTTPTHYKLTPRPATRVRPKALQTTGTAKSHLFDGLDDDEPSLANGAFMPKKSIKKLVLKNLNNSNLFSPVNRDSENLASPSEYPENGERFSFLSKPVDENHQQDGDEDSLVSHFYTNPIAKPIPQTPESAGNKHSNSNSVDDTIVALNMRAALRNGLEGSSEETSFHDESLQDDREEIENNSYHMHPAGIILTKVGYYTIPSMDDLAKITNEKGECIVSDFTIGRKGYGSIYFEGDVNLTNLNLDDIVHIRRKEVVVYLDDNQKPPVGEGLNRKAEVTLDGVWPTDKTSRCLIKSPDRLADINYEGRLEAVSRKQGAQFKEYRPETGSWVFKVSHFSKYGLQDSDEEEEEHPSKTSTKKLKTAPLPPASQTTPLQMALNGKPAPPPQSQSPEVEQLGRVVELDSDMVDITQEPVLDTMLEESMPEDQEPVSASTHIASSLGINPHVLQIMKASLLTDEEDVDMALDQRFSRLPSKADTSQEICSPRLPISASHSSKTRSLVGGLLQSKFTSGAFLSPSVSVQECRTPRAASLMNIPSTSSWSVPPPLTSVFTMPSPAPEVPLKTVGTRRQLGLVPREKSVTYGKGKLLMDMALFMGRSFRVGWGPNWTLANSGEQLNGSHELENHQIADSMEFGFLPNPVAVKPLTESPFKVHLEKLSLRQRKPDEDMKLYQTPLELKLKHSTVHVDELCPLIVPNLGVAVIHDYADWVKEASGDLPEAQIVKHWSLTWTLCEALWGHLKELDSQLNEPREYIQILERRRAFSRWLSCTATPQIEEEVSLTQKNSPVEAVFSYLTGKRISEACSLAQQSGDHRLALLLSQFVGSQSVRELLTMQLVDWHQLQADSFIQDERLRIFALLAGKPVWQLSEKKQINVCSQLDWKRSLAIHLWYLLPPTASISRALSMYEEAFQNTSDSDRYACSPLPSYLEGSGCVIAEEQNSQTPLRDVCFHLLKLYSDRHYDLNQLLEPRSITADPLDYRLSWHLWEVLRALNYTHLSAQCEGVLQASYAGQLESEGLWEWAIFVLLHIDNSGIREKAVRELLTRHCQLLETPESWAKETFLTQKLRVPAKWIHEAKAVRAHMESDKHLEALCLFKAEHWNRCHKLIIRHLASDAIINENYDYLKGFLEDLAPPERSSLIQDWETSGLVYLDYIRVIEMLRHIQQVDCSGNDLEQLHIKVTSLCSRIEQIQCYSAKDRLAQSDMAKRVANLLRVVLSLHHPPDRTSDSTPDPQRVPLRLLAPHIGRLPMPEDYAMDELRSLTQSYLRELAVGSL

Target	thermal stability z-score
ARF6 (UniProt P62330)	0.394
TSPAN13 (UniProt O95857)	0.229
TTC38 (UniProt Q5R3I4)	1.43
VPS13B (UniProt Q7Z7G8)	0.291
MVK (UniProt Q03426)	-0.352
TOMM70 (UniProt O94826)	-0.0648
CKB (UniProt P12277)	-0.249
DNAJB1 (UniProt P25685)	0.448
G3BP1 (UniProt Q13283)	0.523
IFT74 (UniProt Q96LB3)	-0.121
DCP1A (UniProt Q9NPI6)	-0.2
TBCE (UniProt Q15813)	-0.969
VPS13A (UniProt Q96RL7)	1.04
CLPX (UniProt O76031)	-0.306
ORC4 (UniProt O43929)	-0.121
WDR13 (UniProt Q9H1Z4)	-0.241
PAAF1 (UniProt Q9BRP4)	-0.442
TMEM173 (UniProt Q86WV6)	0.0822
NQO2 (UniProt P16083)	1.23
RRBP1 (UniProt Q9P2E9)	0.226
TRAPPC10 (UniProt P48553)	0.191
MASTL (UniProt Q96GX5)	-0.0186
SPATA20 (UniProt Q8TB22)	0.172
TSN (UniProt Q15631)	1.41
USP36 (UniProt Q9P275)	0.216
COMMD4 (UniProt Q9H0A8)	-0.113
BUB1 (UniProt O43683)	-0.0469
PI4KA (UniProt P42356)	-0.343

Target	thermal stability z-score
FAM129A (UniProt Q9BZQ8)	-0.167
HSPA14 (UniProt Q0VDF9)	-0.553
FAM21C (UniProt Q9Y4E1)	0.0661
IFIT1 (UniProt P09914)	-0.626
A0A087WZ62	0.00979
HADHB (UniProt P55084)	-0.0335
MTCL1 (UniProt Q9Y4B5)	-0.242
RFX5 (UniProt P48382)	0.562
CALU (UniProt O43852)	0.0232
VGLL4 (UniProt Q14135)	-0.0828
LYSMD1 (UniProt Q96S90)	1.23
MRPL44 (UniProt Q9H9J2)	-0.467
MKL2 (UniProt Q9ULH7)	-0.208
C9ORF85 (UniProt Q96MD7)	0.0672
PAFAH1B3 (UniProt Q15102)	0.574
NCOA5 (UniProt Q9HCD5)	1.91
NUP98 (UniProt P52948)	-0.415
CMC2 (UniProt Q9NRP2)	0.275
DNAJC30 (UniProt Q96LL9)	-0.154
COX17 (UniProt Q14061)	-0.762
G6PD (UniProt P11413)	0.218
PAK1 (UniProt Q13153)	0.413
PKM (UniProt P14618)	0.109
IPO5 (UniProt O00410)	0.21
RTN3 (UniProt O95197)	0.112
BORCS5|LOH12CR1	1.36
NUDT2 (UniProt P50583)	-0.303

same assay, conditions: HeLa; lipoamide concentration 100 µM; arsenate co-treatment: none

Target	thermal stability z-score
ARF6 (UniProt P62330)	0.237
TSPAN13 (UniProt O95857)	0.441
TTC38 (UniProt Q5R3I4)	1.43
VPS13B (UniProt Q7Z7G8)	0.491
MVK (UniProt Q03426)	-0.323
TOMM70 (UniProt O94826)	0.115
CKB (UniProt P12277)	-0.245
DNAJB1 (UniProt P25685)	0.397
G3BP1 (UniProt Q13283)	0.664
IFT74 (UniProt Q96LB3)	-0.049
DCP1A (UniProt Q9NPI6)	-0.107
TBCE (UniProt Q15813)	-0.354
VPS13A (UniProt Q96RL7)	0.949
CLPX (UniProt O76031)	-0.172
ORC4 (UniProt O43929)	-0.0936
WDR13 (UniProt Q9H1Z4)	-0.115
PAAF1 (UniProt Q9BRP4)	-0.906
TMEM173 (UniProt Q86WV6)	-0.0914
NQO2 (UniProt P16083)	0.788
RRBP1 (UniProt Q9P2E9)	0.25
TRAPPC10 (UniProt P48553)	0.411
MASTL (UniProt Q96GX5)	-0.102
SPATA20 (UniProt Q8TB22)	0.136
TSN (UniProt Q15631)	1.61
USP36 (UniProt Q9P275)	-0.0229
COMMD4 (UniProt Q9H0A8)	-0.32
BUB1 (UniProt O43683)	0.0303
PI4KA (UniProt P42356)	-0.333

Target	thermal stability z-score
FAM129A (UniProt Q9BZQ8)	-0.0302
HSPA14 (UniProt Q0VDF9)	-0.226
FAM21C (UniProt Q9Y4E1)	0.32
IFIT1 (UniProt P09914)	-0.265
A0A087WZ62	0.224
HADHB (UniProt P55084)	0.077
MTCL1 (UniProt Q9Y4B5)	0.0775
RFX5 (UniProt P48382)	0.613
CALU (UniProt O43852)	0.235
VGLL4 (UniProt Q14135)	0.229
LYSMD1 (UniProt Q96S90)	0.621
MRPL44 (UniProt Q9H9J2)	-0.447
MKL2 (UniProt Q9ULH7)	-0.342
C9ORF85 (UniProt Q96MD7)	1.62
PAFAH1B3 (UniProt Q15102)	0.345
NCOA5 (UniProt Q9HCD5)	0.857
NUP98 (UniProt P52948)	-0.292
CMC2 (UniProt Q9NRP2)	0.104
DNAJC30 (UniProt Q96LL9)	-0.0708
COX17 (UniProt Q14061)	-2.24
G6PD (UniProt P11413)	0.206
PAK1 (UniProt Q13153)	0.286
PKM (UniProt P14618)	0.0166
IPO5 (UniProt O00410)	-0.103
RTN3 (UniProt O95197)	0.0244
BORCS5|LOH12CR1	1.29
NUDT2 (UniProt P50583)	-0.0026

compound: O=[As]([O-])(O)O.[K+] [potassium arsenate]; assay: as above; details: HeLa; arsenate concentration 1 mM
Protocol: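 Cellular thermal proteome profiling in HeLa cells treated with 1 mM arsenate for 1 h (DMSO pretreatment), heated to ten temperatures (37-66.3 °C). Soluble protein was quantified by TMT mass spectrometry relative to DMSO controls; the thermal stability score was transformed to a z-score; mean of n = 3 experiments.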

Target	thermal stability z-score
ARF6 (UniProt P62330)	0.683
TSPAN13 (UniProt O95857)	-0.0847
TTC38 (UniProt Q5R3I4)	1.01
VPS13B (UniProt Q7Z7G8)	-0.168
MVK (UniProt Q03426)	-0.675
TOMM70 (UniProt O94826)	-0.0776
CKB (UniProt P12277)	-1.02
DNAJB1 (UniProt P25685)	0.294
G3BP1 (UniProt Q13283)	0.753
IFT74 (UniProt Q96LB3)	-0.115
DCP1A (UniProt Q9NPI6)	-0.248
TBCE (UniProt Q15813)	-0.0811
VPS13A (UniProt Q96RL7)	0.945
CLPX (UniProt O76031)	0.139
ORC4 (UniProt O43929)	-0.113
WDR13 (UniProt Q9H1Z4)	-0.408
PAAF1 (UniProt Q9BRP4)	-0.478
TMEM173 (UniProt Q86WV6)	-0.0763
NQO2 (UniProt P16083)	0.389
RRBP1 (UniProt Q9P2E9)	-0.458
TRAPPC10 (UniProt P48553)	0.381
MASTL (UniProt Q96GX5)	-0.0433
SPATA20 (UniProt Q8TB22)	-0.121
TSN (UniProt Q15631)	-0.161
USP36 (UniProt Q9P275)	-0.265
COMMD4 (UniProt Q9H0A8)	-0.322
BUB1 (UniProt O43683)	0.029
PI4KA (UniProt P42356)	-0.732

Target	thermal stability z-score
FAM129A (UniProt Q9BZQ8)	0.444
HSPA14 (UniProt Q0VDF9)	0.837
FAM21C (UniProt Q9Y4E1)	0.0902
IFIT1 (UniProt P09914)	0.419
A0A087WZ62	0.358
HADHB (UniProt P55084)	-0.422
MTCL1 (UniProt Q9Y4B5)	-1.54
RFX5 (UniProt P48382)	0.132
CALU (UniProt O43852)	0.255
VGLL4 (UniProt Q14135)	-1.46
LYSMD1 (UniProt Q96S90)	0.777
MRPL44 (UniProt Q9H9J2)	-0.354
MKL2 (UniProt Q9ULH7)	0.418
C9ORF85 (UniProt Q96MD7)	0.132
PAFAH1B3 (UniProt Q15102)	0.275
NCOA5 (UniProt Q9HCD5)	1.05
NUP98 (UniProt P52948)	0.214
CMC2 (UniProt Q9NRP2)	0.218
DNAJC30 (UniProt Q96LL9)	0.0918
COX17 (UniProt Q14061)	-2.23
G6PD (UniProt P11413)	0.535
PAK1 (UniProt Q13153)	0.771
PKM (UniProt P14618)	-0.166
IPO5 (UniProt O00410)	-0.498
RTN3 (UniProt O95197)	0.525
BORCS5|LOH12CR1	0.518
NUDT2 (UniProt P50583)	-0.0285

Reference: the supplement of paper PMC12463676, “Small-molecule dissolution of stress granules by redox modulation benefits ALS models” (Nature Chemical Biology, 2025)
